In patent US7537787B2, “Method for modulating glutamate and/or aspartate release in a central nervous system locus” (Indiana University Research and Technology Corporation, priority 1996, dated 2009):

Columns and labels:
[1] = test system: rat hippocampal slices (glutamate release); experiment: TRH inhibition of [K+]-stimulated glutamate release from superfused hippocampal slices in vitro; format: cell-based; settings: for glutamate at 10 min. post stimulation: control 4.37±1.29; for peak 50 mM [K+]-stimulated glutamate release: control 48.05±8.59
From the text: TRH INHIBITION OF [K^+]-STIMULATED GLUTAMATE RELEASE FROM HIPPOCAMPAL SLICES IN VITRO. Enhanced excitatory amino acid release is suspected in pathways associated with seizures and excitotoxicity. In this regard, superfused hippocampal slices were used to investigate the hypothesis that TRH could inhibit glutamate release in vitro. Rat hippocampi were removed and sliced transversely (500 μm) under low magnification. Slices were weighed, washed in cold saline, transferred to individual tissue chambers floated in a 37° C. water bath and were equilibrated in oxygenated (95% O2/5% CO2), (37° C.) Kreb's buffer (KRB) for 120 min. (0.5 ml/min.). Slice chambers were then superfused 10 min. with KRB (control), or KRB containing 10 μM, 1 μM, or 0.1 μM TRH respectively, prior to 5 min. stimulation with modified KRB (50 mM [K^+]±TRH). Fractions (1 min.) were collected during the 5 min. stimulation and for an additional 10 min. (0.5 ml/min.) thereafter, and analyzed for glutamate by HPLC.

[2] = test system: Gαq/11 G proteins (TRH receptor); settings: sustained TRH exposure (16 hr.) to its receptor; cited from earlier work

NC(=O)[C@@H]1CCCN1C(=O)[C@H](Cc1cnc[nH]1)NC(=O)[C@@H]1CCC(=O)N1 [TRH, Thyrotropin-releasing hormone]
glutamate at 10 min. post stimulation ([1]; 0.1 μM TRH): 1.54±0.43 μM/g/fraction
peak 50 mM [K+]-stimulated glutamate release ([1]; 0.1 μM TRH): 1.38±0.28 μM/g/fraction
glutamate at 10 min. post stimulation ([1]; 1 μM TRH): 1.11±0.26 μM/g/fraction
peak 50 mM [K+]-stimulated glutamate release ([1]; 1 μM TRH): 1.54±0.33 μM/g/fraction
glutamate at 10 min. post stimulation ([1]; 10 μM TRH): 1.35±0.48 μM/g/fraction
peak 50 mM [K+]-stimulated glutamate release ([1]; 10 μM TRH): 2.35±0.50 μM/g/fraction
glutamate release by 50 mM [K+]-stimulation given 15 min. later ([1]; 5 min. perfusion with KRB+10 μM TRH, p<0.05, FIG. 6): significantly (p<0.05) blocked
reduction of Gαq/11 G proteins [2]: 20-70%
